Experiments:
[1] = Relative distribution coefficient of epoxybutene into the aqueous phase in the presence of a water-miscible solvent; assay type: physicochemical; conditions: one part solvent added to two parts of 2:1 water-epoxybutene mixture, room temperature, aqueous phase by GC; relative to water alone (=1.00)
Protocol: This example compares the absorption affinity of various water-miscible solvents for epoxybutene in the presence of water, as occurs in the absorbent zone of the present invention. A standard mixture of 2 parts by weight water and one part by weight epoxybutene was prepared. A portion of the standard solution was placed in a separatory funnel, shaken, allowed to settle, then separated into two liquid phases at room temperature. The water phase was analyzed by gas chromatography to determine the solubility of epoxybutene in pure water. Next, for each solvent specified in Table I, one part by weight water-miscible solvent was added to two parts of the standard water-epoxybutene solution. Each water-solvent-epoxybutene solution was placed in a separatory funnel, shaken, allowed to settle, then separated into two liquid phases at room temperature. The aqueous phase from the decantation was analyzed by gas chromatography to determine the epoxybutene solubility in that phase. From these compositions, distribution coefficients were calculated as: [formula]
The relative affinity of solvents for absorption of epoxybutene was determined from a relative molar distribution term, calculated as: [formula]

[2] = 25° C.; cited from earlier work
[3] = Rate of epoxybutene hydrolysis in phosphate buffers at different pH, followed by UV spectrophotometry; assay type: physicochemical
Protocol: The rate of epoxybutene hydrolysis was determined at several different pH levels according to the following procedure: A stirred, thermostatted cell was filled with a solution of buffered water and allowed to equilibrate at a temperature of 29° C. Phosphate buffers at a pH of 3, 5, 7, 8, 9, and 11 were prepared by adding either phosphoric acid or sodium hydroxide to a 0.05 M solution of disodium phosphate. For each experiment, the buffer solution was charged to a stirred, thermostatted equilibrium cell equipped with an UV spectrophometer probe. Once the solution had equilibrated at 29° C. and a background spectra had been collected, a 10 microliter standard sample of epoxybutene in acetronitrile (warmed to 29° C.) was injected into the cell to give an initial concentration of 0.01M epoxybutene. The disappearance of epoxybutene and formation of 3-butene-1,2-diol over time was followed by UV spectrophotometry.

Relative Distribution [1] | Structure (SMILES) | other results
1.40 | C[S+](C)[O-] [Dimethylsulfoxide] | 
1.05 | COC(C)COC(C)=O (stereo not shown) [2-Methoxypropyl Acetate] | 
2.02 | COCC(C)O (stereo not shown) [Propylene Glycol Monomethyl Ether] | 
2.78 | CN1CCCC1=O [1-Methyl-2-Pyrrolidinone] | 
1.03 | c1ccc2ncccc2c1 [Quinoline] | 
 | C=CC1CO1 (stereo not shown) [Epoxybutene, 3,4-epoxy-1-butene] | solubility of epoxybutene in water [2]: 5 to 6 weight percent; Relative Rate of Epoxybutene Hydrolysis ([3]; pH 3, phosphate buffer, 29° C., relative to pH 7): 555.5; Relative Rate of Epoxybutene Hydrolysis ([3]; pH 3, phosphate buffer, 29° C., relative to pH 7, listed as epoxybutene): over 500; Relative Rate of Epoxybutene Hydrolysis ([3]; pH 5, phosphate buffer, 29° C., relative to pH 7): 5.6; Relative Rate of Epoxybutene Hydrolysis ([3]; pH 7, phosphate buffer, 29° C. (reference)): 1.0; Relative Rate of Epoxybutene Hydrolysis ([3]; pH 8, phosphate buffer, 29° C., relative to pH 7): 0.7; Relative Rate of Epoxybutene Hydrolysis ([3]; pH 8, phosphate buffer, 29° C., relative to pH 7, listed as epoxybutene): about 0.7; Relative Rate of Epoxybutene Hydrolysis ([3]; pH 9, phosphate buffer, 29° C., relative to pH 7): 3.2; Relative Rate of Epoxybutene Hydrolysis ([3]; pH 11, phosphate buffer, 29° C., relative to pH 7): 17.6; Relative Rate of Epoxybutene Hydrolysis ([3]; pH 11, phosphate buffer, 29° C., relative to pH 7, listed as epoxybutene): over 17
1.39 | C=CC(O)CO (stereo not shown) [3-Buten-1,2-Diol] | 
1.90 | CC(O)CO (stereo not shown) [Propylene Glycol] | 
1.49 | CCCOCCO [2-Propoxyethanol] | 
1.54 | COCCOCCOCCOC [Triglyme] | 

Structure (SMILES) | Relative Distribution [1] | other results
OCCO [Ethylene Glycol] | 1.14 | 
CCCCOCCOCCO [2-(2-Butoxyethoxy)ethanol] | 4.30 | 
CCCCOCCO [2-Butoxyethanol] | 1.29 | 
CC#N [Acetonitrile] | 1.89 | 
COCCOCCO [2-(2-Methoxyethoxy)ethanol] | 1.83 | 
CN(C)C=O [Dimethylformamide] | 2.44 | 

— US6596882B2, “Recovery and purification of 3,4-epoxy-1-butene using water-miscible solvents” (Eastman Chemical Company, priority 2001, dated 2003)
